# Measured values reported in publication PMC6930638, “The Masked Polar Group Incorporation (MPGI) Strategy in Drug Design: Effects of Nitrogen Substitutions on Combretastatin and Isocombretastatin Tubulin Inhibitors” (Molecules, 2019).
# Where two headings read alike, the source gives them in different places.
# Assays:
# [1] = test system: HeLa cervix epithelioid carcinoma; assay: MTT cell antiproliferative assay, HeLa; assay type: cell-based; conditions: Homo sapiens, 72 h
# Description: (§1) The in vitro antiproliferative activity of the synthesized compounds was evaluated by a colorimetric reaction, using the MTT reagent. They were tested against three different human tumor cell lines: HeLa cervix epithelioid carcinoma, HT-29 colon adenocarcinoma, and MCF-7 breast adenocarcinoma. […] Moving the alkylamino substituent from a para to a meta position with respect to the bridge results in potency reduction, except for the phenstatin analogue 1f. However, the introduction of a nitrogen atom to form 2-dimethylaminopyridine derivatives entails a loss of activity, both for phenstatin analogues (1b, 2b), while for isocombretastatins, it only involves a 2–3 times potency decrease (3b). For combretastatins, it implies an improvement in the cytotoxicity values down to tenths of nanomolar (8b). […] On the other hand, the best 2-dimethylaminopyridine was combretastatin 8b. All ammonium salts derivatives were not cytotoxic at micromolar concentrations.
# (§2) HeLa (human cervical carcinoma) and MCF-7 (human breast carcinoma) cell lines were cultured in Dulbecco’s Modified Eagles Medium (DMEM) supplemented with 2 mM L-glutamine (Lonza-Cambrex, Karlskoga, Sweden), 10% (v/v) heat inactivated fetal bovine serum (HIFBS) (Lonza-Cambrex) and 100 μg/mL streptomycin-100 IU/mL penicillin (Lonza-Cambrex) at 37 °C in humidified 95% air and 5% CO2. HT-29 (human colon carcinoma) cells were cultured at 37 °C in complete RPMI 1640 medium containing 2 mM L-glutamine, 10% (v/v) HIFBS and 100 μg/mL streptomycin-100 IU/mL penicillin in humidified 95% air and 5% CO2 atmosphere.
# (§3) The effect of the different compounds on the proliferation of human cell lines was determined by using the MTT (3-[4,5-dimethylthiazol-2-yl]-2,5-diphenyltetrazolium bromide) reagent (MTT Thiazolyl Blue Tetrazolium Bromide, Sigma-Aldrich, St. Louis, MO, USA) dissolved in PBS 5 mg/mL. Cell viability was evaluated seeding 100 µL of cells in exponential growth phase with appropriate cell line concentration (1.5 × 10^4 HeLa and MCF-7 cells/mL and 3 × 10^4 HT-29 cells/mL) in complete medium in 96-well plates at 37 °C and 5% CO2. After 24 h incubation to allow cells to attach to the plates the ligands were added at different concentrations from 10^−5 to 10^−9 M. The effect on the proliferation was evaluated 72 h post-treatment by adding the MTT reagent (10 µL/well) to a final concentration of 0.5 mg/mL and the plate was further incubated for another 3 h. After this period, the supernatant was removed, the MTT violet crystals formed on the bottom of each well were dissolved in DMSO (100 µL/well) and subsequently, the absorbance of the color complex was read at 570 nm using a multi-well plate reader. Compounds were dissolved in dimethyl sulfoxide (DMSO) and the final solvent concentrations never exceeded 0.5% (v/v). The control wells included treated cells with 0.5% (v/v) DMSO and the positive control. Measurements were performed in triplicate, and each experiment was repeated three times. […] Nonlinear curves fitting the experimental data were carried out for each compound.
# [2] = test system: Bovine brain microtubule protein (MTP); assay: Tubulin polymerization inhibition assay (turbidimetry); assay type: biochemical; conditions: 1.5 mg/mL MTP; IC50 calculated only if more than 50% inhibition at 20 µM; read-out: TPI IC50
# Description: Bovine brain microtubule protein (MTP) was isolated as previously described. Briefly, it was purified according to the modified Shelanski method by two cycles of temperature-dependent assembly/disassembly.
# Tubulin polymerization was monitored using a Helios α spectrophotometer by measuring the increase in turbidity at 450 nm, caused by a shift from 4 °C to 37 °C, which allows the in vitro MTP self-disassembly and assembly respectively. […] Firstly, ligands at 20 µM concentration, were incubated with 1.5 mg/mL MTP at 20 °C for 30 min and subsequently cooled on ice for 10 min. Then, the experiment starts at 4 °C to establish the initial baseline. The assembly process was initiated by shifting of the temperature to 37 °C and the turbidity produced can be measured by an absorbance increase. After reaching a stable plateau, the temperature was switched back to 4 °C to return to the initial absorption values. The difference in amplitude between the stable plateau and the initial baseline of the curves was taken as the degree of tubulin polymerization for each experiment. […] All the measurements were carried out in at least two independent experiments using MTP from different isolation.
# [3] = Aqueous solubility determination (shake flask, UV); assay type: physicochemical; conditions: thermodynamic from solid, phosphate buffer pH 7.0, 48 h stirring, filtered, UV, read-out: Solub.
# Description: One of the expected effects of introducing nitrogen substitutions on combretastatin and isocombretastatin analogues, is an increase in aqueous solubility. Solubility was spectrophotometrically determined in phosphate buffer at pH 7. UV absorbance of soluble compounds was measured after shaking and microfiltration. […] In addition, aqueous solubilities of the corresponding ammonium salts are over 1 mg/mL.
# This great improvement is probably due to the symmetry reduction, combined with an increased polarity for 2g.
# Compounds were stirred in a solution of phosphate buffer at pH 7.0 (1–2 mg of compound in 300 µL of buffer) during 48 h. After that, the samples were filtered over a […] filter to discard the insoluble residues. In order to determine the maximum wavelength of absorbance for each compound, a scan between 270 and 400 nm was performed. Once the wavelength was selected, a calibration line was performed and the concentration of the stirred and filtered samples was measured.
# [4] = test system: HeLa, HT-29 and MCF-7 human tumor cell lines; assay: Antiproliferative activity over the three human tumor cell lines (MTT); assay type: cell-based; conditions: Homo sapiens, read-out: Cytotoxicity range (range of antiproliferative IC50 values)
# Description: as §1
# The antiproliferative activity of the compounds against three human tumor cell lines of different origins (i.e., HeLa cervix epithelioid carcinoma, HT-29 colon adenocarcinoma and MCF-7 breast adenocarcinoma) was evaluated by the MTT method. […] This high success rate is the result of a combination of favorable scaffolds and substituents, and it is similar to those of previous reports on related series. […] We have previously observed the same trend for related compounds acting at the colchicine site of tubulin [10, 23]. For this pyridine series, we observed a different potency trend when we compare the 4-amino-3-pyridine and the 3-amino-4-pyridine derivatives. […] This different behavior is probably a reflection of their different shape, combined with the different geometries imposed by different bridges. We have previously shown that the potency ordering isocombretastatins similar to oximes higher than benzophenones could be explained by the higher conjugation of the ketones with the aromatic rings, which imposes a more planar disposition than those required for high affinity colchicine site binding. For the 3-amino-4-pyridine series, more planar structures are required in order to avoid the bumping of the amino substituents with tubulin out the plane of the aromatic ring, an effect which we have previously shown to impact the potency of 3-substituted indolecombretastatins and dimethylaminophenyl phenstatins. This different geometrical disposition of the amino substituents, and the different adaptability of their corresponding pockets in the two series, can also account for the preference of bulkier substituents at position 3, such as the pyrrolidine rather than the smaller dimethylamino. […] The opposite is observed for the 4-dimethylaminophenyl phenstatins 1a and 1b. […] The remarkable levels of solubility achieved for the quaternary ammonium salts came unfortunately at the expenses of biological activity.
# The effect of the different compounds on the proliferation of human cell lines was determined by using the MTT (3-[4,5-dimethylthiazol-2-yl]-2,5-diphenyltetrazolium bromide) reagent (MTT Thiazolyl Blue Tetrazolium Bromide, Sigma-Aldrich, St. Louis, MO, USA) dissolved in PBS 5 mg/mL. Cell viability was evaluated seeding 100 µL of cells in exponential growth phase with appropriate cell line concentration (1.5 × 10^4 HeLa and MCF-7 cells/mL and 3 × 10^4 HT-29 cells/mL) in complete medium in 96-well plates at 37 °C and 5% CO2. After 24 h incubation to allow cells to attach to the plates the ligands were added at different concentrations from 10^−5 to 10^−9 M. The effect on the proliferation was evaluated 72 h post-treatment by adding the MTT reagent (10 µL/well) to a final concentration of 0.5 mg/mL and the plate was further incubated for another 3 h. […]
# [5] = test system: MCF-7 breast adenocarcinoma; assay: MTT cell antiproliferative assay, MCF-7; assay type: cell-based; conditions: Homo sapiens, MCF7, 72 h
# Description: as §1, §2, §3
# [6] = test system: HT-29 colon adenocarcinoma; assay: MTT cell antiproliferative assay, HT-29 (without or with verapamil); assay type: cell-based, human; conditions: for IC50: Homo sapiens, HT-29, MTT, 72 h
# Description: as §1
# As observed in Table 1, there are no significant changes in the IC50 values for most compounds, except for combretastatins 8a and 8i.
# Acquired resistance to antitumor drugs is one of the more important problems of chemotherapy, also affecting tubulin-targeting drugs. In order to ascertain the impact of multidrug resistance phenotypes on the action of the compounds, we have measured the cell proliferation inhibitory activity of HT-29 cells in the presence of verapamil, a known P-glycoprotein 1/multidrug resistance protein 1 (MDR1) inhibitor at a concentration of 10 µM, not affecting cell proliferation. […] Except for the combretastatin analogues 8a and 8i, the affected drugs are all pyridine drugs.
# as §2, §3
# [7] = phosphate buffer, pH 7, aqueous buffer
# [8] = range over the cell lines, Table S1
IC50 [1] [nM],IC50 [2] [nM],"solubility at 48 h [3, 7] [µg/mL]",IC50 [5] [nM],IC50 [6] [nM],improvement of HT-29 IC50 after verapamil treatment ([6]; 10 µM verapamil) [fold],Structure (SMILES),"IC50 [4, 8] [nM]","IC50 ([4]; range over the cell lines, Table S1, heading: Cytotoxicity range) [nM]",solubility at 48 h ([3]; aqueous buffer) [µg/mL],IC50 [4] [nM]
> 1000,> 20000,4400,> 1000,–,–,"COc1ccc(C(=O)c2ccc([N+](C)(C)C)cc2)c(OC)c1OC.[I-] [Compound 5d, N,N,N-Trimethyl-4-(2,3,4-trimethoxybenzoyl)benzenaminium iodide]",> 1000,–,–,–
> 1000,> 20000,1000,> 1000,–,–,"C=C(c1ccc([N+](C)(C)C)cc1)c1ccc(OC)c(OC)c1OC.[I-] [Compound 7d, N,N,N-Trimethyl-4-(1-(2,3,4-trimethoxyphenyl)vinyl)benzenaminium iodide]",–,> 1000,–,–
> 1000,> 20000,153,> 1000,–,–,"COc1cc(C(=NO)c2cccc(N(C)C)c2)cc(OC)c1OC [Compound 2f, (3-(Dimethylamino)phenyl)(3,4,5-trimethoxyphenyl)methanone oxime]",–,–,–,–
> 1000,> 20000,65,> 1000,–,–,"COc1cc(C=Cc2ccnc(N3CCCC3)c2)cc(OC)c1OC [Compound 8h, 2-(Pyrrolidin-1-yl)-4-(3,4,5-trimethoxystyryl)pyridine]",> 1000,–,–,–
> 1000,> 20000,> 5000,> 1000,–,–,"COc1ccc(OC)c(C(=O)c2ccc([N+](C)(C)C)cc2)c1.[I-] [Compound 5e, 4-(2,5-Dimethoxybenzoyl)-N,N,N-trimethylbenzenaminium iodide]",> 1000,–,–,–
243,–,–,140,430,> 2,"COc1cc(C=Cc2ccc(N3CCCC3)cc2)cc(OC)c1OC [Compound 8i, 1-(4-(3,4,5-Trimethoxystyryl)phenyl)pyrrolidine]",–,–,–,–
> 1000,> 20000,679,> 1000,–,–,"COc1cc(C=Cc2ccc([N+](C)(C)C)nc2)cc(OC)c1OC.[I-] [Compound 9b, N,N,N-trimethyl-5-(3,4,5-trimethoxystyryl)pyridin-2-aminium iodide]",–,–,–,–

# The next lines start with the compound.
Structure (SMILES),IC50 [1] [nM],IC50 [2] [nM],"solubility at 48 h [3, 7] [µg/mL]",IC50 [5] [nM],IC50 [6] [nM],improvement of HT-29 IC50 after verapamil treatment ([6]; 10 µM verapamil) [fold],"IC50 [4, 8] [nM]","IC50 ([4]; range over the cell lines, Table S1, heading: Cytotoxicity range) [nM]",solubility at 48 h ([3]; aqueous buffer) [µg/mL],IC50 [4] [nM]
"C=C(c1cccc(N(C)C)c1)c1cc(OC)c(OC)c(OC)c1 [Compound 3f, N,N-Dimethyl-3-(1-(3,4,5-trimethoxyphenyl)vinyl)aniline]",> 1000,> 20000,–,> 1000,–,–,> 1000,–,21,–
"C=C(c1ccc(N2CCCC2)nc1)c1cc(OC)c(OC)c(OC)c1 [Compound 3c, 2-(Pyrrolidin-1-yl)-5-(1-(3,4,5-trimethoxyphenyl)vinyl)pyridine]",523,> 20000,–,–,383,–,140 to 523,–,–,–
"COc1cc(C(=NO)c2ccc([N+](C)(C)C)cc2)cc(OC)c1OC.[I-] [Compound 6a, 4-((Hydroxyimino)(3,4,5-trimethoxyphenyl)methyl)-N,N,N-trimethylbenzenaminium iodide]",> 1000,> 20000,–,> 1000,–,–,–,–,1500,–
"C=C(c1ccc([N+](C)(C)C)cc1)c1cc(OC)c(OC)c(OC)c1.[I-] [Compound 7a, N,N,N-trimethyl-4-(1-(3,4,5-trimethoxyphenyl)vinyl)benzenaminium iodide]",> 1000,> 20000,–,> 1000,–,–,–,–,2500,> 1000
"COc1cc(C(=O)c2ccc(N(C)C)nc2)cc(OC)c1OC [Compound 1b, (6-(Dimethylamino)pyridin-3-yl)(3,4,5-trimethoxyphenyl)methanone]",> 1000,> 20000,10.5,> 1000,–,–,> 1000,–,–,–
"COc1ccc(C(=NO)c2ccc(N(C)C)cc2)c(OC)c1OC [Compound 2d, (4-(Dimethylamino)phenyl)(2,3,4-trimethoxyphenyl)methanone oxime]",373,> 20000,–,277,320,–,–,–,–,–
